Laboratory results taken from publication PMC11876601 (Molecular Systems Biology, 2025).
Where two headings read alike, the source gives them in different places.

Legend:
AsPC-1 = assay: cells; parameters: ATPlite luminescence viability of PDAC cell lines, 11-dose single-agent curves, 4-parameter fit; conditions: Homo sapiens, ASPC1, 72 h, read-out: EC50 [nM]
In short: (§1)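 Drug-combination screening used cells plated at 1000 to 5000 per well one day before treatment. Final DMSO was 0.2%. Each plate held untreated negative-control wells and 5 µM staurosporine positive-control wells.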

HuP-T4 = assay: cells; parameters: ATPlite luminescence viability of PDAC cell lines, 11-dose single-agent curves, 4-parameter fit; conditions: Homo sapiens, HuP-T4, 72 h, read-out: EC50 [nM]
In short: as §1

BxPC-3 = assay: cells; parameters: ATPlite luminescence viability of PDAC cell lines, 11-dose single-agent curves, 4-parameter fit; conditions: Homo sapiens, BXPC-3, 72 h, read-out: EC50 [nM]
In short: as §1

HPDE = assay: cells; parameters: ATPlite luminescence viability of PDAC cell lines, 11-dose single-agent curves, 4-parameter fit; conditions: HPDE, 72 h, read-out: EC50 [nM]
In short: as §1

PANC-1 [1] = assay: cells; parameters: ATPlite luminescence viability of PDAC cell lines, 11-dose single-agent curves, 4-parameter fit; conditions: Homo sapiens, PANC-1, 72 h, read-out: EC50 [nM]
In short: as §1

Dan-G = assay: cells; parameters: ATPlite luminescence viability of PDAC cell lines, 11-dose single-agent curves, 4-parameter fit; conditions: 72 h, read-out: EC50 [nM]
In short: as §1

MiaPaCa-2 = assay: cells; parameters: ATPlite luminescence viability of PDAC cell lines, 11-dose single-agent curves, 4-parameter fit; conditions: Homo sapiens, MIA PaCa-2, 72 h, read-out: EC50 [nM]
In short: as §1

FAMPAC = assay: cells; parameters: ATPlite luminescence viability of PDAC cell lines, 11-dose single-agent curves, 4-parameter fit; conditions: 72 h, read-out: EC50 [nM]
In short: as §1

PSN-1 = assay: cells; parameters: ATPlite luminescence viability of PDAC cell lines, 11-dose single-agent curves, 4-parameter fit; conditions: Homo sapiens, PSN1, 72 h, read-out: EC50 [nM]
In short: as §1

Colo-357 = assay: cells; parameters: ATPlite luminescence viability of PDAC cell lines, 11-dose single-agent curves, 4-parameter fit; conditions: Homo sapiens, COLO357, 72 h, read-out: EC50 [nM]
In short: as §1

Capan-1 = assay: cells; parameters: ATPlite luminescence viability of PDAC cell lines, 11-dose single-agent curves, 4-parameter fit; conditions: Homo sapiens, CAPAN-1, 72 h, read-out: EC50 [nM]
In short: as §1

PaTu-8988-T = assay: cells; parameters: ATPlite luminescence viability of PDAC cell lines, 11-dose single-agent curves, 4-parameter fit; conditions: Homo sapiens, PaTu 8988t, 72 h, read-out: EC50 [nM]
In short: as §1

Suit2-07 = assay: cells; parameters: ATPlite luminescence viability of PDAC cell lines, 11-dose single-agent curves, 4-parameter fit; conditions: 72 h, read-out: EC50 [nM]
In short: as §1

[2] = test system: HPDE (immortalized pancreatic duct cell line); assay: Drug combination viability screen (ATPlite, 72 h); format: cell-based, human; conditions: single agent, HPDE;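 also: area under vehicle-normalized viability curve scaled 0 to 100 percent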
Protocol: (§2) Cell viability was assessed by measuring ATP levels to indicate metabolic activity.
(§3) Afterward, small amounts were transferred to 384-well intermediate plates (Greiner Bio-One GmbH, Germany). […] For drug combination screening, 1000 to 5000 cells were seeded into 384-well plates (CulturPlate™, Perkin Elmer, MA, USA) using a Multidrop™ Combi Reagent Dispenser (Thermo Scientific, MA, USA) in 50 µl medium per well 24 h prior to drug treatment (seeding densities see Appendix Table S1). […] The final DMSO concentration in each well was 0.2%. […] Eight wells per plate without library drug served as negative controls, and sixteen wells per plate containing 5 µM Staurosporine served as positive controls. Control plates not containing any drug were used to correct for incubation effects, and data quality was assessed by calculation of Z-prime of positive and negative controls according to1 Z-prime=1−3SDpos+3SDneg/[…] where SD is the standard deviation. […] Dose–response curves from the experimental and hypothetical data were compared, and shifts in AUC were used to describe combination effects (AUC∆ = AUChypothetical − AUCexperimental). […] Only combinations with R^2 > 0.8 in both conditions were considered in the synergy analysis.

13 PDAC cell lines = assay: Phenotypic drug combination viability screen (ATPlite, 72 h), cell line panel; format: cell-based, human; conditions: single agent, 72 h
Protocol: as §2, §3

PANC-1 [3] = assay: cells; parameters: Viability of PDAC cell lines, ATPlite luminescence, 11-dose single-agent curve fit; conditions: Homo sapiens, PANC-1, 72 h, read-out: EC50 [nM]
In short: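 screening used cells plated at 1000 to 5000 per well one day before treatment. Final DMSO was 0.2%. Each plate held untreated negative-control wells and 5 µM staurosporine positive-control wells.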

EC50 (AsPC-1) | EC50 (BxPC-3) | EC50 (PANC-1 [1]) | EC50 (MiaPaCa-2) | EC50 (Colo-357) | SMILES | EC50 (HuP-T4) | EC50 (HPDE) | EC50 (Dan-G) | EC50 (FAMPAC) | EC50 (PSN-1) | EC50 (Capan-1) | EC50 (PaTu-8988-T) | EC50 (Suit2-07) | AUC [2] | median AUC across all cell lines (13 PDAC cell lines) | EC50 (PANC-1 [3])
> 10000 nM | 6420 nM | 6660 nM | 1700 nM | 1.6 nM | CN(C)C/C=C/C(=O)Nc1cc2c(Nc3ccc(F)c(Cl)c3)ncnc2cc1O[C@H]1CCOC1 [Afatinib] | > 10000 nM | 22.8 nM | 1.59 nM | > 10000 nM | > 10000 nM | 4990 nM | 2740 nM | 9950 nM | < 60% | – | –
13.7 nM | 101 nM | > 10000 nM | 6.21 nM | 5300 nM | O=C(c1ccc(F)c(F)c1Nc1ccc(I)cc1F)N1CC(O)([C@@H]2CCCCN2)C1 [Cobimetinib] | > 10000 nM | 4490 nM | > 10000 nM | 39.5 nM | 12.3 nM | 8510 nM | 5570 nM | 752 nM | – | < 70% | –
> 10000 nM | > 10000 nM | 3920 nM | 2210 nM | 909 nM | COc1cc2ncnc(Nc3ccc(F)c(Cl)c3)c2cc1NC(=O)/C=C/CN1CCCCC1 [Dacomitinib] | > 10000 nM | 46.5 nM | 2440 nM | 3270 nM | 3850 nM | 10300 nM | 2200 nM | 1730 nM | < 60% | – | –
8730 nM | 4820 nM | 7120 nM | 2370 nM | 7270 nM | C=CC(=O)Nc1cccc(Nc2nc(Nc3ccc(N4CCN(C(C)=O)CC4)cc3OC)ncc2C(F)(F)F)c1 [Rociletinib] | > 10000 nM | 3460 nM | 6290 nM | 3580 nM | 2080 nM | 6270 nM | 4940 nM | 2750 nM | – | – | –

SMILES | EC50 (AsPC-1) | EC50 (BxPC-3) | EC50 (PANC-1 [1]) | EC50 (MiaPaCa-2) | EC50 (Colo-357) | EC50 (HuP-T4) | EC50 (HPDE) | EC50 (Dan-G) | EC50 (FAMPAC) | EC50 (PSN-1) | EC50 (Capan-1) | EC50 (PaTu-8988-T) | EC50 (Suit2-07) | AUC [2] | median AUC across all cell lines (13 PDAC cell lines) | EC50 (PANC-1 [3])
CCOc1cc2ncc(C#N)c(Nc3ccc(OCc4ccccn4)c(Cl)c3)c2cc1NC(=O)/C=C/CN(C)C [Neratinib] | 816 nM | 1210 nM | – | 863 nM | 1280 nM | > 10000 nM | 60.8 nM | 7080 nM | 1320 nM | > 10000 nM | 6740 nM | 835 nM | 1400 nM | < 60% | – | 8210 nM
